Measured values: patent US20240358692A1, “TREATMENT OF SCLERODERMA” (Aisa Pharma, Inc., priority 2023, published 2024)

Tested on: participants with SSc-RP
Test: SHAQ - Visual Analog Scale - Intestinal Problems
Assay type: in vivo, human
Design: Visual Analog Scale-Intestinal Problems, In Clinic Visit (Day 12), Mean / Visual Analog Scale-Intestinal Problems, In Clinic Visit (Day 12), Median / Visual Analog Scale-Intestinal Problems, Change from Baseline, Mean / Visual Analog Scale-Intestinal Problems, Change from Baseline, Median / SHAQ Visual Analogue Scale - Intestinal Problems, In-Clinic Visit (Day 12), Median: scale not given here
Description: The standard, validated, patient reported outcome measures tool for SSc patients, the Scleroderma Health Assessment Questionnaire (SHAQ), will be used to assess the participant qualify of life. Details are attached in the Appendix. The participant quality of life will be scored, and a disability index calculated for each questionnaire completed by the patient at Screening and each in-clinic visit. The absolute change in participant quality of life from baseline to the end of each dosing period will be calculated similar to frequency data as before.
The standard, validated, patient reported outcome measures tool for SSc patients, the SHAQ, was collected at the time points specified in the study schedules (FIG. 2 and FIGS. 4A and 4B) to assess the participant's quality of life. The SHAQ included a Raynaud's VAS that will also be reported separately.

[1] = Any Cilnidipine (N = 17), Day 12, PP Population, Part A
[2] = Cilnidipine 10 mg, SSc patients, PP, Part A
[3] = Cilnidipine 20 mg, SSc patients, PP, Part A
[4] = Modified ITT Population-Part A, Day 12, dose cilnidipine 10 mg, tadalafil 5 mg, alone or combined as labelled
[5] = Modified ITT Population-Part A, Day 12, dose cilnidipine 20 mg, tadalafil 5 mg, alone or combined as labelled
[6] = Modified ITT Population-Part A, dose cilnidipine 10 mg, tadalafil 5 mg, alone or combined as labelled
[7] = Pooled Cilnidipine (N = 8), Day 12, PP Population, Part A
[8] = pooled Cilnidipine 10 mg and Cilnidipine 10 mg + Tadalafil 5 mg
[9] = pooled Cilnidipine 20 mg and Cilnidipine 20 mg + Tadalafil 5 mg
[10] = pooled cilnidipine 10 mg and 20 mg arms (combination: + tadalafil 5 mg)
[11] = Tadalafil 5 mg, SSc patients, PP, Part A

## COCCOC(=O)C1=C(C)NC(C)=C(C(=O)OC/C=C/c2ccccc2)C1c1cccc([N+](=O)[O-])c1 (stereo not shown) [Cilnidipine]
[1]
  SHAQ Visual Analogue Scale - Intestinal Problems, Change from Baseline, Mean (SD): −0.556 (1.7427)
  SHAQ Visual Analogue Scale - Intestinal Problems, Change from Baseline, Median: −0.100
  SHAQ Visual Analogue Scale - Intestinal Problems, In-Clinic Visit (Day 12), Mean (SD): 1.121 (1.4119)
  SHAQ Visual Analogue Scale - Intestinal Problems, In-Clinic Visit (Day 12), Median: 0.600
  SHAQ Visual Analogue Scale - Intestinal Problems, Percent Change from Baseline, Mean (SD): −18.65 (93.767) %
  SHAQ Visual Analogue Scale - Intestinal Problems, Percent Change from Baseline, Median: −54.13%
[2]
  SHAQ VAS Intestinal Problems, Change from Baseline, Max: 0.00
  SHAQ VAS Intestinal Problems, Change from Baseline, Median: −1.550
  SHAQ VAS Intestinal Problems, Change from Baseline, Min: −4.40,
  SHAQ VAS Intestinal Problems, Change from Baseline, Q1: −3.700,
  SHAQ VAS Intestinal Problems, Change from Baseline, Q3: −0.050
  SHAQ VAS Intestinal Problems, Day 12, Max: 3.80
  SHAQ VAS Intestinal Problems, Day 12, Mean: 1.100
  SHAQ VAS Intestinal Problems, Day 12, Median: 0.300
  SHAQ VAS Intestinal Problems, Day 12, Min: 0.00,
  SHAQ VAS Intestinal Problems, Day 12, Q1: 0.000,
  SHAQ VAS Intestinal Problems, Day 12, Q3: 2.200
  SHAQ VAS Intestinal Problems, Percent Change from Baseline, Max: −44.1
  SHAQ VAS Intestinal Problems, Percent Change from Baseline, Median: −88.00
  SHAQ VAS Intestinal Problems, Percent Change from Baseline, Min: −100.0,
  SHAQ VAS Intestinal Problems, Percent Change from Baseline, Q1: −100.00,
  SHAQ VAS Intestinal Problems, Percent Change from Baseline, Q3: −44.12
[3]
  SHAQ VAS Intestinal Problems, Change from Baseline, Max: 0.60
  SHAQ VAS Intestinal Problems, Change from Baseline, Mean: 0.150
  SHAQ VAS Intestinal Problems, Change from Baseline, Median: 0.150
  SHAQ VAS Intestinal Problems, Change from Baseline, Min: −0.30,
  SHAQ VAS Intestinal Problems, Change from Baseline, Q1: −0.150,
  SHAQ VAS Intestinal Problems, Change from Baseline, Q3: 0.450
  SHAQ VAS Intestinal Problems, Day 12, Max: 2.10
  SHAQ VAS Intestinal Problems, Day 12, Mean: 0.850
  SHAQ VAS Intestinal Problems, Day 12, Median: 0.650
  SHAQ VAS Intestinal Problems, Day 12, Min: 0.00,
  SHAQ VAS Intestinal Problems, Day 12, Q1: 0.000,
  SHAQ VAS Intestinal Problems, Day 12, Q3: 1.700
  SHAQ VAS Intestinal Problems, Percent Change from Baseline, Max: 40.0
  SHAQ VAS Intestinal Problems, Percent Change from Baseline, Mean: −10.00
  SHAQ VAS Intestinal Problems, Percent Change from Baseline, Min: −100.0,
  SHAQ VAS Intestinal Problems, Percent Change from Baseline, Q1: −100.00,
  SHAQ VAS Intestinal Problems, Percent Change from Baseline, Q3: 40.00
Cilnidipine, pooled, n = 7 (in column Cilnidipine 20 mg), minus = improvement, Table A*
  SHAQ Intestinal Difficulty, mean % change: −45% (pooled,
[4]
  Visual Analog Scale-Intestinal Problems, Percent Change from Baseline, Median: −88.00%
[5]
  Visual Analog Scale-Intestinal Problems, Change from Baseline, Mean: 0.300
  Visual Analog Scale-Intestinal Problems, Change from Baseline, Median: 0.300
  Visual Analog Scale-Intestinal Problems, Percent Change from Baseline, Mean: 35.00%
  Visual Analog Scale-Intestinal Problems, Percent Change from Baseline, Median: 35.00%
[6]
  Visual Analog Scale-Intestinal Problems, In Clinic Visit (Day 12), Mean: 1.100
  Visual Analog Scale-Intestinal Problems, In Clinic Visit (Day 12), Median: 0.300
Modified ITT Population-Part A, dose cilnidipine 20 mg, tadalafil 5 mg, alone or combined as labelled
  Visual Analog Scale-Intestinal Problems, In Clinic Visit (Day 12), Median: 1.300
Pooled Cilnidipine 10 mg and Cilnidipine 10 mg + Tadalafil 5 mg (N = 9), Day 12, PP Population, Part A
  SHAQ Visual Analogue Scale - Intestinal Problems, In-Clinic Visit (Day 12), Median: 0.700
Pooled Cilnidipine 20 mg and Cilnidipine 20 mg + Tadalafil 5 mg (N = 8), Day 12, PP Population, Part A
  SHAQ Visual Analogue Scale - Intestinal Problems, In-Clinic Visit (Day 12), Median: 0.100
[7]
  SHAQ Visual Analogue Scale - Intestinal Problems, Change from Baseline, Mean (SD): −0.863 (1.8110)
  SHAQ Visual Analogue Scale - Intestinal Problems, In-Clinic Visit (Day 12), Mean (SD): 0.975 (1.3781)
  SHAQ Visual Analogue Scale - Intestinal Problems, Percent Change from Baseline, Mean (SD): −43.69 (64.404) %
Pooled cilnidipine (n=5)
  % Δ from baseline, Intestinal Problems mean: −32.4%
[8]
  VAS Intestinal Problems Change from Baseline Max: 1.00
  VAS Intestinal Problems Change from Baseline Mean: −1.228
  VAS Intestinal Problems Change from Baseline Median: −0.250
  VAS Intestinal Problems Change from Baseline Min: −4.40,
  VAS Intestinal Problems Change from Baseline Q1: −3.000,
  VAS Intestinal Problems Change from Baseline Q3: 0.000
  VAS Intestinal Problems Day 12 Max: 3.80
  VAS Intestinal Problems Day 12 Median: 0.700
  VAS Intestinal Problems Day 12 Min: 0.00,
  VAS Intestinal Problems Day 12 Q1: 0.000,
  VAS Intestinal Problems Day 12 Q3: 1.900
  VAS Intestinal Problems Percent Change from Baseline Max: 142.9%
  VAS Intestinal Problems Percent Change from Baseline Mean: −27.93%
  VAS Intestinal Problems Percent Change from Baseline Min: −100.0, %
  VAS Intestinal Problems Percent Change from Baseline Q1: −94.00, %
  VAS Intestinal Problems Percent Change from Baseline Q3: 15.00%
[9]
  VAS Intestinal Problems Change from Baseline Max: 2.90
  VAS Intestinal Problems Change from Baseline Median: 0.000
  VAS Intestinal Problems Change from Baseline Min: −1.60,
  VAS Intestinal Problems Change from Baseline Q1: −0.300,
  VAS Intestinal Problems Change from Baseline Q3: 0.600
  VAS Intestinal Problems Day 12 Max: 4.50
  VAS Intestinal Problems Day 12 Median: 0.200
  VAS Intestinal Problems Day 12 Min: 0.00,
  VAS Intestinal Problems Day 12 Q1: 0.000,
  VAS Intestinal Problems Day 12 Q3: 2.100
  VAS Intestinal Problems Percent Change from Baseline Max: 181.3%
  VAS Intestinal Problems Percent Change from Baseline Median: 30.00%
  VAS Intestinal Problems Percent Change from Baseline Min: −100.0, %
  VAS Intestinal Problems Percent Change from Baseline Q1: −88.89, %
  VAS Intestinal Problems Percent Change from Baseline Q3: 40.00%
[10]
  VAS Intestinal Problems Change from Baseline Max: 0.60
  VAS Intestinal Problems Change from Baseline Median: 0.000
  VAS Intestinal Problems Change from Baseline Min: −4.40,
  VAS Intestinal Problems Change from Baseline Q1: −3.000,
  VAS Intestinal Problems Change from Baseline Q3: 0.300
  VAS Intestinal Problems Day 12 Max: 3.80
  VAS Intestinal Problems Day 12 Median: 0.600
  VAS Intestinal Problems Day 12 Min: 0.00,
  VAS Intestinal Problems Day 12 Q1: 0.000,
  VAS Intestinal Problems Day 12 Q3: 2.100
  VAS Intestinal Problems Percent Change from Baseline Max: 40.0%
  VAS Intestinal Problems Percent Change from Baseline Min: −100.0, %
  VAS Intestinal Problems Percent Change from Baseline Q1: −88.00, %
  VAS Intestinal Problems Percent Change from Baseline Q3: 30.00%

## CN1CC(=O)N2[C@H](c3ccc4c(c3)OCO4)c3[nH]c4ccccc4c3C[C@@H]2C1=O [Tadalafil]
[4]
  Visual Analog Scale-Intestinal Problems, Change from Baseline, Median: 0.000
  Visual Analog Scale-Intestinal Problems, Percent Change from Baseline, Median: 0.00%
[11]
  SHAQ VAS Intestinal Problems, Change from Baseline, Max: 1.80
  SHAQ VAS Intestinal Problems, Change from Baseline, Median: 0.000
  SHAQ VAS Intestinal Problems, Change from Baseline, Min: −2.30,
  SHAQ VAS Intestinal Problems, Change from Baseline, Q1: −1.150,
  SHAQ VAS Intestinal Problems, Change from Baseline, Q3: 0.900
  SHAQ VAS Intestinal Problems, Day 12, Max: 9.20
  SHAQ VAS Intestinal Problems, Day 12, Mean: 3.025
  SHAQ VAS Intestinal Problems, Day 12, Median: 1.450
  SHAQ VAS Intestinal Problems, Day 12, Min: 0.00,
  SHAQ VAS Intestinal Problems, Day 12, Q1: 0.050,
  SHAQ VAS Intestinal Problems, Day 12, Q3: 6.000
  SHAQ VAS Intestinal Problems, Percent Change from Baseline, Max: 24.3
  SHAQ VAS Intestinal Problems, Percent Change from Baseline, Mean: −6.92
  SHAQ VAS Intestinal Problems, Percent Change from Baseline, Median: 0.00
  SHAQ VAS Intestinal Problems, Percent Change from Baseline, Min: −45.1,
  SHAQ VAS Intestinal Problems, Percent Change from Baseline, Q1: −45.10,
  SHAQ VAS Intestinal Problems, Percent Change from Baseline, Q3: 24.32
